Measurements published in patent publication US20260166162A1, “CARBON CHAIN SUBSTANCE FOR REGULATING TRANSMEMBRANE TRANSPORT AND FLUIDITY OF CELL MEMBRANES, AND PREPARATION AND USE THEREOF” (priority 2022, published 2026).

Legend:
[1] = tested on: 293T cells; assay: Cellular phagocytosis of DiD-loaded lipid vesicles (nano-drugs) by 293T cells (Example II-51, Table II-29); assay type: cell-based; settings: 293T cells pretreated 4 h, DiD lipid vesicles 2 h, n=3, untreated control 226.46 ± 1.26
[2] = tested on: Hela cells; assay: Cell membrane fluidity (Laurdan fluorescence recovery) in Hela cells; assay type: cell-based

| Compound | Fluorescence intensity ([1]; 2 nM) | Fluorescence intensity ([1]; 5 nM) | Fluorescence intensity ([1]; 10 nM) | Fluorescence intensity ([1]; 50 nM) | Fluorescence intensity ([1]; 100 nM) | Fluorescence intensity ([1]; 1 uM) | Fluorescence intensity ([1]; 10 uM) | Fluorescence intensity ([1]; 50 uM) | Fluorescence intensity ([1]; 100 uM) | Fluorescence recovery rate % ([2]; 2 nM, 20 s) [%] | Fluorescence recovery rate % ([2]; 2 nM, 40 s) [%] | Fluorescence recovery rate % ([2]; 2 nM, 60 s) [%] | Fluorescence recovery rate % ([2]; 2 nM, 80 s) [%] | Fluorescence recovery rate % ([2]; 5 nM, 20 s) [%] | Fluorescence recovery rate % ([2]; 5 nM, 40 s) [%] | Fluorescence recovery rate % ([2]; 5 nM, 60 s) [%] | Fluorescence recovery rate % ([2]; 5 nM, 80 s) [%] | Fluorescence recovery rate % ([2]; 10 nM, 20 s) [%] | Fluorescence recovery rate % ([2]; 10 nM, 40 s) [%] | Fluorescence recovery rate % ([2]; 10 nM, 60 s) [%] | other results |
| --- | --- | --- | --- | --- | --- | --- | --- | --- | --- | --- | --- | --- | --- | --- | --- | --- | --- | --- | --- | --- | --- |
| CCCCCC(=O)O [Hexanoic acid] | 131.26 ± 11.25 | 114.00 ± 14.2 | 94.34 ± 4.25 | 96.63 ± 6.32 | 30.71 ± 1.25 | 102.07 ± 12.2 | 125.10 ± 12.55 | 288.42 ± 8.32 | 325.58 ± 15.26 | – | – | – | – | – | – | – | – | – | – | – | – |
| adenosine monophosphate-linoleic acid | – | – | – | – | – | – | – | – | – | 62.11 | 62.98 | 64.26 | 68.17 | 63.44 | 64.22 | 65.78 | 66.39 | 63.22 | 63.48 | 64.42 | Fluorescence recovery rate % ([2]; 10 nM, 80 s): 65.93%; Fluorescence recovery rate % ([2]; 50 nM, 20 s): 64.25%; Fluorescence recovery rate % ([2]; 50 nM, 40 s): 64.66%; Fluorescence recovery rate % ([2]; 50 nM, 60 s): 65.33%; Fluorescence recovery rate % ([2]; 50 nM, 80 s): 66.23%; Fluorescence recovery rate % ([2]; 50 μM, 20 s): 64.44%; Fluorescence recovery rate % ([2]; 50 μM, 40 s): 70.73%; Fluorescence recovery rate % ([2]; 50 μM, 60 s): 74.64%; Fluorescence recovery rate % ([2]; 50 μM, 80 s): 80.57%; Fluorescence recovery rate % ([2]; 100 μM, 20 s): 63.22%; Fluorescence recovery rate % ([2]; 100 μM, 40 s): 67.48%; Fluorescence recovery rate % ([2]; 100 μM, 60 s): 75.42%; Fluorescence recovery rate % ([2]; 100 μM, 80 s): 79.93% |
| CCCCCCCCC=CCCCCCCCC(=O)OCC(O)C1OC(=O)C(O)=C1O (centres unmarked) [Vc-oleic acid] | – | – | – | – | – | – | – | – | – | 61.48 | 62.33 | 63.41 | 64.57 | 61.87 | 62.99 | 63.47 | 63.21 | 63.72 | 63.75 | 64.67 | Fluorescence recovery rate % ([2]; 10 nM, 80 s): 65.92%; Fluorescence recovery rate % ([2]; 50 nM, 20 s): 62.43%; Fluorescence recovery rate % ([2]; 50 nM, 40 s): 62.62%; Fluorescence recovery rate % ([2]; 50 nM, 60 s): 63.37%; Fluorescence recovery rate % ([2]; 50 nM, 80 s): 64.24%; Fluorescence recovery rate % ([2]; 50 μM, 20 s): 62.54%; Fluorescence recovery rate % ([2]; 50 μM, 40 s): 67.11%; Fluorescence recovery rate % ([2]; 50 μM, 60 s): 74.55%; Fluorescence recovery rate % ([2]; 50 μM, 80 s): 76.57%; Fluorescence recovery rate % ([2]; 100 μM, 20 s): 61.66%; Fluorescence recovery rate % ([2]; 100 μM, 40 s): 73.65%; Fluorescence recovery rate % ([2]; 100 μM, 60 s): 77.32%; Fluorescence recovery rate % ([2]; 100 μM, 80 s): 78.61% |
| CCCCCCCCCCCC(=O)NCCCCC(N)C(=O)O (centres unmarked) [Lys-C12] | 175.30 ± 15.23 | 103.11 ± 10.33 | 49.05 ± 5.26 | 24.16 ± 3.36 | 25.45 ± 5.22 | 367.61 ± 27.11 | 417.28 ± 17.23 | 110.76 ± 8.54 | 104.90 ± 6.23 | – | – | – | – | – | – | – | – | – | – | – | – |
| C/C=C/C(=O)O [Crotonic acid] | 157.30 ± 20.43 | 159.29 ± 0.43 | 94.34 ± 0.43 | 51.34 ± 0.43 | 59.65 ± 1.57 | 458.20 ± 20.41 | 326.69 ± 20.40 | 200.73 ± 10.31 | 218.13 ± 8.22 | – | – | – | – | – | – | – | – | – | – | – | – |
| CCCCCC/C=C\CCCCCCCC(=O)OC(C)C(N)C(=O)O (stereo not drawn) [Threonine-cis-9-hexadecanoic acid] | 142.94 | 67.71 ± 5.67 | 64.00 ± 4.06 | 74.71 ± 5.36 | 56.71 ± 6.74 | 153.25 ± 13.25 | 126.64 ± 11.02 | 37.23 ± 2.35 | 61.12 ± 5.21 | – | – | – | – | – | – | – | – | – | – | – | – |
| CCCCCCCC/C=C\CCCCCCCC(=O)O.OCCO [Ethylene glycol-oleic acid] | 182.21 ± 18.23 | 121.07 ± 11.26 | 69.12 ± 4.26 | 64.90 ± 1.56 | 44.23 ± 4.26 | 368.97 ± 18.56 | – | 69.34 ± 5.32 | 58.72 ± 8.75 | – | – | – | – | – | – | – | – | – | – | – | – |
| CCC=CCC=CCC=CCCCCCCCC(=O)OCC1OC(O)C(O)C(O)C1O (centres unmarked) [Glucose-linolenic acid] | – | – | – | – | – | – | – | – | – | 63.78 | 64.18 | 65.22 | 65.16 | 64.35 | 64.83 | 65.17 | 66.59 | 64.76 | 64.87 | 65.11 | Fluorescence recovery rate % ([2]; 10 nM, 80 s): 66.83%; Fluorescence recovery rate % ([2]; 50 nM, 20 s): 63.24%; Fluorescence recovery rate % ([2]; 50 nM, 40 s): 64.10%; Fluorescence recovery rate % ([2]; 50 nM, 60 s): 64.54%; Fluorescence recovery rate % ([2]; 50 nM, 80 s): 65.23%; Fluorescence recovery rate % ([2]; 50 μM, 20 s): 63.11%; Fluorescence recovery rate % ([2]; 50 μM, 40 s): 70.49%; Fluorescence recovery rate % ([2]; 50 μM, 60 s): 74.88%; Fluorescence recovery rate % ([2]; 50 μM, 80 s): 79.24%; Fluorescence recovery rate % ([2]; 100 μM, 20 s): 65.93%; Fluorescence recovery rate % ([2]; 100 μM, 40 s): 69.87%; Fluorescence recovery rate % ([2]; 100 μM, 60 s): 75.03%; Fluorescence recovery rate % ([2]; 100 μM, 80 s): 80.83% |
